Data published in patent publication US20070212705A1, “P[…]-D CARBOX[…], EXPRESSION AND ACTIVITY” (priority 2005, published 2007).

Experiments:
[1] = biological target: E. coli LDC (Escherichia coli, UniProt P76008); experiment: LDC assay (tetrapeptide cleavage, Amplex Red detection) with E. coli LDC; assay type: biochemical
Method: (§1) The assay consists of two parts: (i) cleavage of peptide substrate by LDC enzyme, and (ii) detection of the D-Ala cleavage product using Amplex Red. Conditions for E. coli LDC cleavage were established using a modification of conditions presented by Templin et al. (1999). The cleavage assay was assembled in black 96 half area flat bottom plates (Costar, 3694) (Corning Life Sciences, Acton, Mass.) and consisted of LDC at the indicated concentration in 30 μl (microliters) of 100 mM (milliMolar) Tris-HCl pH 8.5 containing 25 μg/ml of bovine serum albumin (B4287 Sigma, St. Louis, Mo.). “Tetrapeptide Lys” substrate L-Ala-γ-D-Glu-L-Lys-D-Ala was synthesized by SynPep, Inc. (Dublin, Calif.). […] Inhibitor compounds were added to the enzyme in 2 μl of 30% dimethyl sulfoxide and incubated for 10 minutes at room temperature, prior to the addition of tetrapeptide. The negative control received 2 μl of 30% dimethyl sulfoxide alone without any compound.
(§2) The principle of the detection system is oxidation of D-Ala by the enzyme D-amino acid oxidase to produces hydrogen peroxide. […] The detection reaction was incubated for 30 minutes at 37° C., and the plates were read on a SpectraMax Gemini (excitation 530 nm, emission 590 nm) (Molecular Devices, Sunnyvale, Calif.). […]

[2] = biological target: T1, PA LDC (Pseudomonas aeruginosa, UniProt Q9HTZ1); experiment: LDC assay (tetrapeptide Lys cleavage, Amplex Red detection of D-Ala) with purified PA LDC; assay type: biochemical; details: 10 minutes preincubation at room temperature before tetrapeptide substrate, read-out: IC50, inhibition of PA LDC
T1 construct: hexahistidine (pET14b N-terminal leader) (N); made in house; host or cells: E. coli BL21 (plasmid pPALDC1, pET14b)
Method: as §1, §2

[3] = biological target: LDC (Escherichia coli, UniProt P76008); details: Templin et al., 1999; cited from earlier work
LDC, sequence (P76008 whole entry): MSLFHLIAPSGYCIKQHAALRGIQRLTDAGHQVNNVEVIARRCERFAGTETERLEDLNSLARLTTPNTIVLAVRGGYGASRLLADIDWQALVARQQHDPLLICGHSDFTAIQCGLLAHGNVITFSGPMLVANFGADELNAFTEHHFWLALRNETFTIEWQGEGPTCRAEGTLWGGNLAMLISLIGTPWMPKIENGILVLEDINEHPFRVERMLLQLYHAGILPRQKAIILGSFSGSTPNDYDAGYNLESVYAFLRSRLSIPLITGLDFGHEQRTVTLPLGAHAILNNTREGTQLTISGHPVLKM

T1 sequence (Q9HTZ1 whole entry): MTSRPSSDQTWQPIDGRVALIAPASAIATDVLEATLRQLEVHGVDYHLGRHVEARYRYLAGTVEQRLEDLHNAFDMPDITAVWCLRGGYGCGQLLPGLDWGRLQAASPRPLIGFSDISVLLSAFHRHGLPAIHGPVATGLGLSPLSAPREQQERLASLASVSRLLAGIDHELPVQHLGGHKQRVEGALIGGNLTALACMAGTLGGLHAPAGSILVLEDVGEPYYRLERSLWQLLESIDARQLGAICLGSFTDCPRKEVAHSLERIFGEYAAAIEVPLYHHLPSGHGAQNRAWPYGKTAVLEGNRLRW
E. coli LDC, sequence (P76008 whole entry): as the sequence (P76008 whole entry) above

SMILES | IC50 [1] | IC50 [2] | Inhibition of LDC [3]
O=C(Sc1nc2ccccc2nc1SC(=O)c1cc2ccccc2o1)c1cc2ccccc2o1 [2-Benzofurancarbothioic acid, S,S′-2,3-quinoxalinediyl ester] | 1.4 µM | 0.1 µM | 
O=C(O)C=CC(=O)c1ccc2c(c1)NC(=O)CO2 [3,4-dihydro-g,3-dioxo-2H-1,4-Benzoxazine-6-crotonic acid] | 12 µM | 170 µM | 
N[C@H](CCOc1ccc(/C(=N/O)C(=O)N[C@H]2CN([C@@H](C(=O)O)c3ccc(O)cc3)C2=O)cc1)C(=O)O [Nocardicin A] |  |  | inhibited
